Reference: US8455484B2, “Selected inhibitors of protein tyrosine kinase activity” (MethylGene Inc., priority 2010, dated 2013)

What was measured:
VEGFR2 (KDR) = biological target: T1, VEGFR2 (KDR) (Homo sapiens, UniProt P35968); experiment: In vitro receptor tyrosine kinase assay (VEGF receptor KDR), DELFIA; type: biochemical; conditions: recombinant GST-VEGFR2 catalytic domain, ATP 0.6 uM, enzyme 5 nM; read-out: VEGFR IC50
T1 construct: made in house; host or cells: Sf9 cells (Spodoptera frugiperda), baculovirus
T1 sequence (P35968 806-1356): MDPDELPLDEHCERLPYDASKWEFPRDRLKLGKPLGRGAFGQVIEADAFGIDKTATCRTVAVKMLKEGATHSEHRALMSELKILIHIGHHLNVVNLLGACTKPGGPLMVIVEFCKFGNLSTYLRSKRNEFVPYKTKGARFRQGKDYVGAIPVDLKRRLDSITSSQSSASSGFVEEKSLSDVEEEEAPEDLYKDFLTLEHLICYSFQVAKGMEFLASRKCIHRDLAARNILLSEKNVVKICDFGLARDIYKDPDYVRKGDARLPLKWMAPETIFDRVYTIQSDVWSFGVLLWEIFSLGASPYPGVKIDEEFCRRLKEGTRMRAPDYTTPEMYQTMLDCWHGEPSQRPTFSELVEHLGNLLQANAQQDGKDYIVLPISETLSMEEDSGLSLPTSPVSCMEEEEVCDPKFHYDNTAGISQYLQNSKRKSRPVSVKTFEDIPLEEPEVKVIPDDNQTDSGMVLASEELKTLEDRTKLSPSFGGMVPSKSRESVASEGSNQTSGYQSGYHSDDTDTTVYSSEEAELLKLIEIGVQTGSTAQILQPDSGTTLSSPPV
Source text: This test measures the ability of compounds to inhibit the enzymatic activity of recombinant human VEGF receptor enzymatic activity.
A 1.6-kb cDNA corresponding to the catalytic domain of VEGFR2 (KDR) (Genbank accession number AF035121 amino acid 806 to 1356) is cloned into the Pst I site of the pDEST20 Gateway vector (Invitrogen) for the production of a GST-tagged version of that enzyme. This constuct is used to generate recombinant baculovirus using the Bac-to-Bac™ system according to the manucfacturer's instructions (Invitrogen).
The GST-VEGFR2806-1356 protein is expressed in Sf9 cells (Spodoptera frugiperda) upon infection with recombinant baculovirus construct. Briefly, Sf9 cells grown in suspension and maintained in serum-free medium (Sf900 II supplemented with gentamycin) at a cell density of about 2×10^6 cells/ml are infected with the above-mentioned viruses at a multiplicity of infection (MOI) of 0.1 during 72 hours at 27° C. with agitation at 120 rpm on a rotary shaker. Infected cells are harvested by centrifugation at 398 g for 15 min. Cell pellets are frozen at −80° C. until purification is performed.
All steps described in cell extraction and purification are performed at 4° C. Frozen Sf9 cell pellets infected with the GST-VEGFR2806-1356 recombinant baculovirus are thawed and gently resuspended in Buffer A (PBS pH 7.3 supplemented with 1 μg/ml pepstatin, 2 μg/ml Aprotinin and leupeptin, 50 μg/ml PMSF, 50 μg/ml TLCK and 10 μM E64 and 0.5 mM DTT) using 3 ml of buffer per gram of cells. Suspension is Dounce homogenized and 1% Triton X-100 is added to the homogenate after which it is centrifuged at 22500 g, 30 min., 4° C. The supernatant (cell extract) is used as starting material for purification of GST-VEGFR2806-1356.
The supernatant is loaded onto a GST-agarose column (Sigma) equilibrated with PBS pH 7.3. Following a four column volume (CV) wash with PBS pH 7.3+1% Triton X-100 and 4 CV wash with buffer B (50 mM Tris pH 8.0, 20% glycerol and 100 mM NaCl), bound proteins are step eluted with 5 CV of buffer B supplemented with 5 mM DTT and 15 mM glutathion. GST-VEGFR2806-1356 enriched fractions from this chromatography step are pooled based on U.V. trace i.e. fractions with high O.D.280. Final GST-VEGFR2806-1356 protein preparations concentrations are about 0.7 mg/ml with purity approximating 70%. Purified GST-VEGFR2806-1356 protein stocks are aliquoted and frozen at −80° C. prior to use in enzymatic assay.
Inhibition of VEGFR/KDR is measured in a DELFIA™ assay (Perkin Elmer). The substrate poly(Glu4, Tyr) is immobilized onto black high-binding polystyrene 96-well plates. The coated plates are washed and stored at 4° C. During the assay, the enzyme is pre-incubated with inhibitor and Mg-ATP on ice in polypropylene 96-well plates for 4 minutes, and then transferred to the coated plates. The subsequent kinase reaction takes place at 30° C. for 10-30 minutes. ATP concentrations in the assay are 0.6 uM for VEGFR/KDR (2× the Km). Enzyme concentration is 5 nM. After incubation, the kinase reactions are quenched with EDTA and the plates are washed. Phosphorylated product is detected by incubation with Europium-labeled anti-phosphotyrosine MoAb. After washing the plates, bound MoAb is detected by time-resolved fluorescence in a Gemini SpectraMax reader (Molecular Devices). Compounds are evaluated over a range of concentrations, and IC50 values (concentration of compounds giving 50% inhibition of enzymatic activity) are determined.

CNV progression = experiment: In vivo choroidal neovascularization (CNV) model; set-up: species or system Brown-Norway rats; conditions: injection into right eye on Day 3, CNV area on Day 10, vs vehicle-treated group
Source text: This test measures the capacity of compounds to inhibit CNV progression. CNV is the main cause of severe vision loss in patients suffering from age-related macular degeneration (AMD).
Male Brown-Norway rats (Japan Clea Co., Ltd.) were used in these studies.
Rats were anesthetized by intraperitoneal injection of pentobarbital, and the right pupil was dilated with 0.5% tropicamide and 0.5% phenylephrine hydrochloride. The right eye received 6 laser burns between retinal vessels using a slit lamp delivery system of Green laser Photocoagulator (Nidex Inc., Japan), and microscope slide glass with Heaton™ (AMO Inc) used as a contact lens. The laser power was 100 or 200 mW for 0.1 second and spot diameter was 100 μm. At the time of laser burn, bubble production was observed, which is an indication of rupture of Bruch's membrane which is important for CNV generation.
Rats were divided into the groups based on their body weight using SAS software (SAS institute Japan, R8.1) after laser irradiation (Day 0). After animals were anesthetized, and the right pupil dilated (as above mentioned), the right eye of the animal received the compound or vehicle by an injection (10 μL/eye) at doses of 10 or 3 nmol/eye on Day 3. The compounds were dissolved or suspended in CBS, PBS, or other adequate vehicles before injection.
On Day 10, the animals were anesthetized with ether, and high molecular weight fluorescein isothiocyanate (FITC)-dextran (SIGMA, 2×10^6 MW) was injected via a tail vein (20 mg/rat). About 30 min after FITC-dextran injection, animals were euthanized by ether or carbon dioxide, and the eyes were removed and fixed with 10% formaline neutral buffer solution. After over 1 hour of fixation, RPE-choroid-sclera flat mounts were obtained by removing cornea, lens and retina from the eyeballs. The flat mounts were mounted in 50% glycerol on a microscope slide, and the portion burned by laser was photographed using a fluorescence microscope (Nikon Corporation, excitation filter:465-495 nm, absorption filter:515-555 nm). The CNV area was obtained by measurement of hyper-fluorescence area observed on the photograph using Scion image.
The average CNV area of 6 burns was used as an individual value of CNV area, and the average CNV area of compound treated group was compared with that of the vehicle-treated group.

[1] = test system: VEGF-induced retinal vascular permeability; experiment: VEGF-induced retinal vascular permeability in rabbits; type: in vivo, Dutch rabbits; conditions: intravitreal injection, human VEGF165 500 ng, 30 min after fluorescein injection, vs vehicle-treated group
Method: This test measured the capacity of compounds to inhibit VEGF-induced retinal vascular permeability. Vascular permeability is the cause of severe vision loss in patients suffering from age-related macular degeneration (AMD). Female Dutch rabbits (˜2 kg; Kitayama LABES CO., LTD, Nagano, Japan) were anesthetized with pentobarbital and topically with 0.4% oxybuprocaine hydrochloride. Test articles or vehicle were injected into vitreous cavity after the dilation of the pupils with 0.5% tropicamide eye drop. Recombinant human VEGF165 (500 ng; Sigma-Aldrich Co., St Louis, Mo.) was injected intravitreously 48 hr prior to the measurement of vitreous fluorescein concentration. Rabbits were anesthetized with pentobarbital and sequentially injected sodium fluorescein (2 mg/kg) via the ear vein. Pupils were dilated with 0.5% tropicamide eye drop, and ocular fluorescein levels were measured using the FM-2 Fluorotron Master (Ocumetrics, Mountain View, Calif.) 30 min after fluorescein injection. The fluorescein concentrations in vitreous were obtained at data points that are 0.25 mm apart from posterior-end along an optical axis. Vitreous fluorescence concentration was considered fluorescein leakage from retinal vasculature. The average fluorescence peaks of the test article treated groups were compared with that of the vehicle-treated group.

Molecule | IC50 (VEGFR2 (KDR)) | Inhibition of CNV progression (CNV progression; 3 nmol/eye) | Inhibition of CNV progression (CNV progression; 10 nmol/eye) | inhibition of the leakage of fluorescein (vitreous fluorescein concentration) [1]
1-((2-(7-(4-Isopropylaminocarbonylamino-2-fluorophenoxy)thieno[3,2-b]pyrid methyl-1H-imidazol-5-yl)methyl)-3-isopropyl-1-(2-methoxyethyl)urea [Compound 192] | 50 to 100 nM | B (≧40% to <60% inhibition) | – | –
CCNC(=O)N(CCOC)Cc1ccc(-c2cc3nccc(Oc4ccc(NC(=O)NC5CC5)cc4F)c3s2)nc1 [Compound 2, N-[3-((6-(7-(4-(3-cyclopropylureido)-2-fluorophenoxy)thieno[3,2-b]pyridin-2-yl)pyridin-3-yl)methyl)]-N-(1-ethyl)-N-[3-(2-methoxyethyl)]urea] | < 50 nM | B (≧40% to <60% inhibition) | A (greater than or equal to 60% inhibition) | –
COCCN(C=O)Cc1ccc(-c2cc3nccc(Oc4ccc(NC(=O)NC5CC5)cc4F)c3s2)nc1 [Compound 6, N-((6-(7-(4-(3-cyclopropylureido)-2-fluorophenoxy)thieno[3,2-b]pyridin-2-yl)pyridin-3-yl)methyl)-N-(2-methoxyethyl)formamide] | < 50 nM | B (≧40% to <60% inhibition) | A (greater than or equal to 60% inhibition) | –
COCCN(Cc1ccc(-c2cc3nccc(Oc4ccc(NC(=O)NC5CC5)c(F)c4F)c3s2)nc1)C(C)=O [Compound 26, N-((6-(7-(4-(3-cyclopropylureido)-2,3-difluorophenoxy)thieno[3,2-b]pyridin-2-yl)-pyridin-3-yl)methyl)-N-(2-methoxyethyl)acetamide] | < 50 nM | B (≧40% to <60% inhibition) | A (greater than or equal to 60% inhibition) | significant inhibition
O=C(Nc1ccc(Oc2ccnc3cc(-c4ccc(CN5CCN(C(=O)CO)CC5)cn4)sc23)c(F)c1)NC1CC1 [Compound 74, 1-cyclopropyl-3-(3-fluoro-4-(2-(5-((4-(2-hydroxyacetyl)piperazin-1-yl)methyl)pyridin-2-yl)thieno[3,2-b]pyridin-7-yloxy)phenyl)urea] | < 50 nM | A (greater than or equal to 60% inhibition) | A (greater than or equal to 60% inhibition) | significant inhibition
CC(C)[C@H](N)C(=O)OCC(=O)N1CCN(Cc2ccc(-c3cc4nccc(Oc5ccc(NC(=O)NC6CC6)cc5F)c4s3)nc2)CC1 [Compound 80, (S)-2-(4-((6-(7-(4-(3-cyclopropylureido)-2-fluorophenoxy)thieno[3,2-b]pyridin-2-yl)pyridin-3-yl)methyl)piperazin-1-yl)-2-oxoethyl 2-amino-3-methylbutanoate] | < 50 nM | – | – | –
CS(=O)(=O)CCNCc1ccc(-c2cc3nccc(Oc4ccc(NC(=O)NC5CC5)cc4F)c3s2)nc1 [Compound 100, 1-cyclopropyl-3-(3-fluoro-4-(2-(5-((2-(methylsulfonyl)ethylamino)methyl)pyridin-2-yl)thieno[3,2-b]pyridin-7-yloxy)phenyl)urea] | < 50 nM | – | – | –
CN(CCO)CCn1cc(-c2cc3nccc(Oc4ccc(NC(=O)NC5CC5)cc4F)c3s2)cn1 [Compound 151, 1-cyclopropyl-3-(3-fluoro-4-(2-(1-(2-((2-hydroxyethyl)(methyl)amino)ethyl)-1H-pyrazol-4-yl)thieno[3,2-b]pyridin-7-yloxy)phenyl)urea] | < 50 nM | – | – | –
COCCN(Cc1cnc(-c2cc3nccc(Oc4ccc(NC(=O)NC5CC5)cc4F)c3s2)n1C)C(=O)CO [Compound 209, N-((2-(7-(4-(3-cyclopropylureido)-2-fluorophenoxy)thieno[3,2-b]pyridin-2-yl)-1-methyl-1H-imidazol-5-yl)methyl)-2-hydroxy-N-(2-methoxyethyl)acetamide] | < 50 nM | – | – | –
CN1CCN(C2CCN(C(=O)c3ccc(-c4cc5nccc(Oc6ccc(NC(=O)NC7CC7)cc6F)c5s4)nc3)CC2)CC1 [Compound 234, 1-Cyclopropyl-3-(3-fluoro-4-(2-(5-(4-(4-methylpiperazin-1-yl)piperidine-1-carbonyl)pyridin-2-yl)thieno[3,2-b]pyridin-7-yloxy)phenyl)urea] | < 50 nM | B (≧40% to <60% inhibition) | – | –
O=C(Nc1ccc(Oc2ccnc3cc(-c4cn(CCN5CCOCC5)cn4)sc23)c(F)c1)NC1CC1 [Compound 265] | < 50 nM | – | – | –
